Laboratory results: US20040029130A1, “Drug screening systems and assays” (priority 2000, published 2004)
“Also recorded” adds a separate entry of the source.

What was measured:
[1] = system: non-homologous end-joining (NHEJ) of DNA by PC-C (Ku70/80, DNA-PKcs, XRCC4, DNA ligase IV); assay: DNA end-joining (NHEJ) complementation assay with HeLa fraction PC-C; format: biochemical, human; conditions: for ability to stimulate DNA end-joining (NHEJ) by PC-C: FIG. 4C, 6A, 8; for stimulation of NHEJ by PC-C relative to IP6: FIG. 8; for concentration that saturates the NHEJ system / Kd: components derived from humans; for Kd: crude estimate, read-out: estimate of the Kd in the NHEJ system
Procedure: Fraction PC-C was dialyzed for 2 hours against L buffer (20 mM Tris-HCl pH 8.0, 25 mM KOAc, 0.5 mM EDTA, 10% glycerol, 1 mM DTT) and stored at −80° C.
End joining reactions (10 μl) were carried out in 50 mM HEPES pH 8.0, 40 mM KOAc, 0.5 mM Mg(OAc)2, 1 mM ATP, 1 mM DTT, 0.1 mg/ml BSA, contained 2-3 μl (3-5 μg) of PC-C and HindIII-linearized 5′-^32P-labeled pDEA7Z DNA (10 ng). Incubation was for 1 hour at 37° C. ^32P-labeled DNA products were deproteinized and analyzed by electrophoresis through 0.6% agarose gels followed by autoradiography. Quantification of joining efficiency was carried out by phosphorimaging and the data are presented as (% total ends-joinedsample)−(% total ends-joinedPC-C) unless otherwise stated. For assays of inositol phosphates, aqueous solutions were added directly to the end-joining reactions. For the screening of column fractions; 0.5-1 μl of diluted (in L buffer) or undiluted column fractions were added

DNA-PK = target: T1, DNA-PK (Homo sapiens, UniProt P12956+P13010); assay: Gel filtration analysis of 3H-inositol phosphate binding by DNA-PK; conditions: for binding by DNA-PK: gel filtration, 100 nM 3H-ligand, FIG. 7
T1 construct: purchased Promega
T1 sequence (P12956 2-609 limits assumed): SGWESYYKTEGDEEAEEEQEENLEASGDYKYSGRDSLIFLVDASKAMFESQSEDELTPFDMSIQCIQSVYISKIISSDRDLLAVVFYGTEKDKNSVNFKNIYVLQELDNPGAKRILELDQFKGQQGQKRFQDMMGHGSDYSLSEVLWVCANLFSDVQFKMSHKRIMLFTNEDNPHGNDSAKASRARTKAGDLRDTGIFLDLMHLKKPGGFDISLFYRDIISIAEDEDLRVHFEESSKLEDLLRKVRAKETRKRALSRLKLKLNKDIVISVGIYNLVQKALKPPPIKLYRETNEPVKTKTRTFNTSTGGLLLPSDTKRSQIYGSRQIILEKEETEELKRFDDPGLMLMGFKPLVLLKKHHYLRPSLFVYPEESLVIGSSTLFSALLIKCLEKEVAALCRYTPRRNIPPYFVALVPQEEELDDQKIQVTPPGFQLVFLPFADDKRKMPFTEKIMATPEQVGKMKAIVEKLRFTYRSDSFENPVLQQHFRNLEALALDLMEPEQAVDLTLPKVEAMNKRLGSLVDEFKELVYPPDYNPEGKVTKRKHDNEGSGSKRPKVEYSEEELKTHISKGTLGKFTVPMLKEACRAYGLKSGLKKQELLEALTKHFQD
T1 sequence (P13010 2-732 limits assumed): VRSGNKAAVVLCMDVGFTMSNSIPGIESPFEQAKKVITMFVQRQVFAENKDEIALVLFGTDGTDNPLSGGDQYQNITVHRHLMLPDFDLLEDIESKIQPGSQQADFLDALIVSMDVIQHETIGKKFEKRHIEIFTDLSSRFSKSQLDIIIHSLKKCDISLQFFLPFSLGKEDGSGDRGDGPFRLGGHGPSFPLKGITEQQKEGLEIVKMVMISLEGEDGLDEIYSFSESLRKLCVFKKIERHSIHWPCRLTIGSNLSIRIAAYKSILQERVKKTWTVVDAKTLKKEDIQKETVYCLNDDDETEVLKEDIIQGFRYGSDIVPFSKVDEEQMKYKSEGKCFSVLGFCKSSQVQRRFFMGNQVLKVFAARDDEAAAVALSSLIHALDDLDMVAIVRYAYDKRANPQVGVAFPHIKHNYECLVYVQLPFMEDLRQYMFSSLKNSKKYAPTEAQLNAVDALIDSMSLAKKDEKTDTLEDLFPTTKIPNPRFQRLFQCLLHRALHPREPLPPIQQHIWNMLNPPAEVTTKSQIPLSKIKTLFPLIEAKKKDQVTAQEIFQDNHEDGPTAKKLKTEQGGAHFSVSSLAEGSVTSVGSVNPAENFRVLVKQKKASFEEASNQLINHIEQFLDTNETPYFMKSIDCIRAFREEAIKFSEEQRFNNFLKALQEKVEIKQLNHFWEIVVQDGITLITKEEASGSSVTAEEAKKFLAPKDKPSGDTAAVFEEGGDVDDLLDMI
Procedure: Binding reactions (55 μl) were carried out in 25 mM HEPES pH 7.5, 50 mM KCl, 10 mM MgCl2, 1 mM DTT, 10% glycerol, 0.1% NP-40 with 5000 units of DNA-PK (Promega) or 1.8 mg/ml of protein size standards for gel filtration (BioRad) and 100 nM ^3H-IP6 or ^3H-IP3 at 4° C. for 30 min. Complexes were resolved on a Superose 12 PC3.2/30 column run in 50 mM HEPES pH 8.0, […], 0.1M KCl, 10% glycerol, 1 mM DTT at 40 μl/min. 50 μl fractions were collected; 20 μl samples of each fraction were used for ^3H scintilation counting (10 min/sample in 5 ml EcoscintA) and 10 μl were assayed for DNA-PK kinase activity using the SignaTECT DNA-PK assay system (Promega).
The specificity of IP6 recognition by DNA-PK was assessed by competition trials using inositol hexasulphate (IS6). […] Addition of DNA-PK results in an increase in the mobility of the ^3H-IP6 indicating complex formation. IS6, presented in 10- and 100-fold molar excess have no effect on the amount of ^3H-IP6 bound by DNA-PK.

Ku 70/80 heterodimer = target: T2, Ku 70/80 heterodimer (Homo sapiens, UniProt P12956+P13010); assay: Gel filtration binding and competition analysis with purified Ku 70/80; conditions: for binding by Ku 70/80 heterodimer: gel filtration, FIG. 10-12; for loss in 3H-IP6 binding by Ku (competition): one molar equivalent of competitor
T2 construct: made in house
T2 sequence (P12956 whole entry): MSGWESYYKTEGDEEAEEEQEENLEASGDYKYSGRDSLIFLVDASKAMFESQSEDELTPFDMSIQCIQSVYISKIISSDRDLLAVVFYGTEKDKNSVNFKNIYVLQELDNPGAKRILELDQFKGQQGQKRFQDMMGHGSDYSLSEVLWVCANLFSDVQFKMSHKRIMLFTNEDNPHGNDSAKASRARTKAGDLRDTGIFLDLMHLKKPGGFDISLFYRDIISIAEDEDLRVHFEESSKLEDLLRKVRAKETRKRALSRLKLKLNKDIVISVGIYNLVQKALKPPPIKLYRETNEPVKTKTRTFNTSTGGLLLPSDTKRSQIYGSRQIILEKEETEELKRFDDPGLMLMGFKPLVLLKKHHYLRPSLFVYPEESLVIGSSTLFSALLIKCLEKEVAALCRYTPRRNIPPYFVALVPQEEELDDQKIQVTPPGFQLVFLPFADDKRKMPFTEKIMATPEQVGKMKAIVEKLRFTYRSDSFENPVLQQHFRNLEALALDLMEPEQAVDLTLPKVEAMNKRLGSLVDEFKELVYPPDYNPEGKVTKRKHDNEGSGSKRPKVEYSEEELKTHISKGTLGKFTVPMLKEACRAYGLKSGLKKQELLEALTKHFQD
T2 sequence (P13010 whole entry): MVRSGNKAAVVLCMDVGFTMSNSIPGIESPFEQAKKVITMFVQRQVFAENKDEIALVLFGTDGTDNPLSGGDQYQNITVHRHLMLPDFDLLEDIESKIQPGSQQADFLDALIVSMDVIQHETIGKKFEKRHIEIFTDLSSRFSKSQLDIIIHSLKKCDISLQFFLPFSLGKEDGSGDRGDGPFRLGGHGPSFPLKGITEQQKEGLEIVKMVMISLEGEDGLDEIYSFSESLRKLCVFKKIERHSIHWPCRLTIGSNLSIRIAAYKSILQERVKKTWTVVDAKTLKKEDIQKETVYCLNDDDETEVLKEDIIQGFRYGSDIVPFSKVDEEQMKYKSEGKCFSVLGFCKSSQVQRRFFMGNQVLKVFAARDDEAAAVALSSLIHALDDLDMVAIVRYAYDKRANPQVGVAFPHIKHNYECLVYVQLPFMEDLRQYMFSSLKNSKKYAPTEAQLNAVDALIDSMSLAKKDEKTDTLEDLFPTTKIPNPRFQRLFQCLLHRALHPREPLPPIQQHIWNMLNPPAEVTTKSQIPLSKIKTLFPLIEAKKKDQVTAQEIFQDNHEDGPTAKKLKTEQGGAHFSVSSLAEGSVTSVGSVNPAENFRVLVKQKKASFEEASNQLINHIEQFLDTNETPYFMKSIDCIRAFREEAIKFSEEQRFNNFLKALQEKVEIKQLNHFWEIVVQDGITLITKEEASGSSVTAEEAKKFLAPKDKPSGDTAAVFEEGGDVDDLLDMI
Procedure: (§1) Superdex 200 gel filtration, 50 μl fractions, scint. counting 20 μl/fraction 100 nM ^3H-IP6, 100 nM Ku, 100 nM DNA ([…]), 100 nM PKcs. Running buffer. 50 mM HEPES, pH 8.0, 40 mM KOAc, 10% Glycerol, 0.1 M KCl, 1 mM DTT.
(§2) Ku 70/80 and DNA-PKcs were purified to homogeneity and used to examine the binding of IP6 by DNA-PK ^3H-IP6 was used in these binding experiments and the curves presented in FIG. 10 represent the distribution of ^3H-IP6 along a gel filtration column under various conditions. ^3H-IP6 observed in a peak below 17 kD represents unbound ^3H-IP6. In the presence of purified Ku 70/80 (±DNA-PKcs) ^3H-IP6 elutes early from the column near the 150 MW point. […] It is believed that DNA-PK assembles on DNA and that in the absence of DNA that Ku and DNA-PKcs, are separate in solution. The addition of DNA to the Ku-^3H-IP6 complex results in a shift in the elution profile from the gel filtration column—the peak is broader (possibly owing to the mobility of the DNA) and has an earlier start point. […] Finally, the addition of DNA-PKcs, to the Ku-IP6DNA complex results in an additional increase in mobility along the gel filtration column. The species appears very large—near 670 kD—which is consistent with it containing Ku 70/80, ^3H-IP6, DNA-PKcs and DNA.
The specificity of IP6 binding by Ku was examined by competition analysis (FIG. 13) using IP3, IP6 and IP7. […] These findings may be extended to postulate that while IP6 is bound by Ku, that the stimulatory effect of IP6 on NHEJ probably results from additional interactions that may be regulated by formation of the IP6-Ku complex.

T4 DNA ligase = target: T3, T4 DNA ligase (Enterobacteria phage T4, UniProt P00970); assay: T4 DNA ligation assay; format: biochemical; conditions: 2 μM IP6, T4 DNA ligase 0.1 u/μl, FIG. 6B
T3 construct: purchased NEB
T3 sequence (P00970 1-487): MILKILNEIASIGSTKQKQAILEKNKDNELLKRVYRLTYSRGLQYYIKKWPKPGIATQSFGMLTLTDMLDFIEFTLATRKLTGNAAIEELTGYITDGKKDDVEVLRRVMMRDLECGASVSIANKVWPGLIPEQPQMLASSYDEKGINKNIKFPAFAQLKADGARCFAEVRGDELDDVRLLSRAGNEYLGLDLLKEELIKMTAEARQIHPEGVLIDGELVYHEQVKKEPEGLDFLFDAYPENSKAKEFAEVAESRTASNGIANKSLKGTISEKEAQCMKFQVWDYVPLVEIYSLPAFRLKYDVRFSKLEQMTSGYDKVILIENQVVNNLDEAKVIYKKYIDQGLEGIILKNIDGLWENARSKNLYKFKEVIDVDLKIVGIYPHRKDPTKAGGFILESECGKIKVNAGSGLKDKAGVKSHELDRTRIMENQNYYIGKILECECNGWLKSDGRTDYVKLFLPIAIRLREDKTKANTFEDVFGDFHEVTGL
Procedure: Reactions (10 μl) containing T4 DNA ligase (NEB) were carried out in 1×T4 DNA ligase buffer (NEB) at 25° C. in the presence and absence of inositol phosphates. Reactions were stopped, deproteinized and the products analyzed by agarose gel electrophoresis.

DNA-PKcs = target: T4, DNA-PKcs (Homo sapiens, UniProt P78527); assay: Gel filtration binding with purified DNA-PKcs; conditions: absence of DNA, FIG. 10-11
T4 construct: made in house
Procedure: as §1, §2

phosphatases = conditions: cited from earlier work
skin cancer development = conditions: mice, given orally; cited from earlier work

## O=P(O)(O)O[C@H]1[C@@H](OP(=O)(O)O)[C@@H](OP(=O)(O)O)[C@H](OP(=O)(O)OP(=O)(O)O)[C@@H](OP(=O)(O)O)[C@@H]1OP(=O)(O)O [IP7-pp6, myo-6-diphosphoinositol 1,2,3,4,5-pentakisphosphate]
[1]
  ability to stimulate DNA end-joining (NHEJ) by PC-C: do stimulate NHEJ by PC-C
  stimulation of NHEJ by PC-C relative to IP6: approximately 10 fold

## O=P(O)(O)OC1[C@H](O)[C@H](OP(=O)(O)O)C(OP(=O)(O)O)[C@H](OP(=O)(O)O)[C@H]1O (stereo partly drawn) [IP4, D-myo-inositol 1,3,4,5-tetrakisphosphate]
[1]
  ability to stimulate DNA end-joining (NHEJ) by PC-C: able to stimulate end-joining, but the efficiency of this stimulation was reduced relative to IP6; also recorded: able to stimulate end-joining, though to a lesser extent; also recorded: stimulate NHEJ of DNA

## O=P(O)(O)OC1[C@@H](OP(=O)(O)O)[C@H](OP(=O)(O)O)C(OP(=O)(O)OP(=O)(O)O)[C@H](OP(=O)(O)O)[C@H]1OP(=O)(O)O (stereo partly drawn) [IP7, diphosphoinositol pentakisphosphate]
[1]
  stimulation of NHEJ by PC-C relative to IP6: 10 fold
  concentration that saturates the NHEJ system: 1 µM
  Kd: ~100 µM
DNA-PK
  binding by DNA-PK: binds
Ku 70/80 heterodimer
  binding by Ku 70/80 heterodimer: bind
Ku 70/80 heterodimer; FIG. 13
  loss in 3H-IP6 binding by Ku (competition): ~50%

## O=P(O)(O)O[C@@H]1[C@@H](OP(=O)(O)O)[C@H](OP(=O)(O)O)[C@H](O)[C@H](OP(=O)(O)O)[C@H]1OP(=O)(O)O [IP5, myo-inositol 1,3,4,5,6-pentakisphosphate]
[1]
  ability to stimulate DNA end-joining (NHEJ) by PC-C: able to stimulate end-joining, but the efficiency of this stimulation was reduced relative to IP6; also recorded: able to stimulate end-joining, though to a lesser extent; also recorded: stimulate NHEJ of DNA

## O=P(O)(O)O[C@H]1[C@@H](OP(=O)(O)O)[C@H](OP(=O)(O)O)[C@@H](OP(=O)(O)OP(=O)(O)O)[C@H](OP(=O)(O)O)[C@H]1OP(=O)(O)O [IP7 pp5, myo-5-diphosphoinositol 1,2,3,4,6-pentakisphosphate]
[1]
  ability to stimulate DNA end-joining (NHEJ) by PC-C: do stimulate NHEJ by PC-C
  stimulation of NHEJ by PC-C relative to IP6: approximately 10 fold

## O=P(O)(O)OC1C(OP(=O)(O)O)C(OP(=O)(O)O)C(OP(=O)(O)O)C(OP(=O)(O)O)C1OP(=O)(O)O (stereo not drawn) [IP6, myo-inositol 1,2,3,4,5,6-hexakisphosphate]
[1]
  low concentration at which end-joining can be stimulated (discussion): 100 µM
  ability to stimulate DNA end-joining (NHEJ) by PC-C: most effective inositol phosphate compound of those tested; also recorded: stimulated end-joining by PC-C; also recorded: stimulate NHEJ of DNA
  concentration that saturates the NHEJ system: 10 µM
  Kd: ~1 µM
[1]; FIG. 4B
  concentration of maximal stimulation of end-joining by PC-C: 1 µM
[1]; FIG. 4B, commercially available IP6
  concentration at which end-joining by PC-C is stimulated: ~100 nM
T4 DNA ligase
  effect on efficiency of ligation by T4 DNA ligase: unaffected; also recorded: no effect
DNA-PK
  binding by DNA-PK: capable of binding; also recorded: binds
Ku 70/80 heterodimer
  binding by Ku 70/80 heterodimer: bind
Ku 70/80 heterodimer; listed as 3H-IP6
  binding by Ku 70/80 heterodimer: binds
Ku 70/80 heterodimer; FIG. 13
  loss in 3H-IP6 binding by Ku (competition): ~50%
DNA-PKcs
  interaction with DNA-PKcs: does not interact
phosphatases
  concentration at which it functions as a phosphatase inhibitor: ≥ 10 µM
Skin cancer development
  effect on skin cancer development: reduces initiation of skin cancer development but not its promotion

## O=S(=O)(O)OC1C(OS(=O)(=O)O)C(OS(=O)(=O)O)C(OS(=O)(=O)O)C(OS(=O)(=O)O)C1OS(=O)(=O)O (stereo not drawn) [IS6, inositol hexasulphate]
[1]
  ability to stimulate DNA end-joining (NHEJ) by PC-C: unable to stimulate end-joining
DNA-PK; 10- and 100-fold molar excess, FIG. 9
  effect on the amount of 3H-IP6 bound by DNA-PK (competition): does not compete; also recorded: no effect

## myo-inositol 1,4,5-trisphosphate [IP3]
[1]
  ability to stimulate DNA end-joining (NHEJ) by PC-C: inhibitory; also recorded: does not stimulate NHEJ
[1]; listed as myo-inositol 1,4,5-trisphosphate
  ability to stimulate DNA end-joining (NHEJ) by PC-C: inhibit end-joining
DNA-PK
  binding by DNA-PK: not
DNA-PK; listed as 3H-IP3
  binding by DNA-PK: not altered by the presence of DNA-PK
Ku 70/80 heterodimer; 3-fold molar excess of competitor, FIG. 13
  effect on 3H-IP6 binding by Ku (competition): no effect
